Data set [1] has as its system immortalized human keratinocytes (HaCaT). Description: MTT cell viability assay, HaCaT. The conditions noted are these: 48 h incubation. In kind it is cell-based. An excerpt: (§1) The immortalized human keratinocytes (HaCaT) were from Innoprot.
Data set [2] relates to human epidermoid carcinoma cells (A431). Kind of data set: MTT cell viability assay, A431. In kind it is cell-based.
Description: as §1

The test system of the next data set is SVT2 cells. Description: Cellular Pt uptake by ICP-MS, SVT2. The data set is classed as cell-based, murine. The conditions noted are these: SVT2, 9.8 μM (IC50), 48 h, mean ± S.E. As for the experimental part:
In particular, SVT2 and A431 were incubated for 48 h with 1-Me,Me and 1-Oct,Me, using the IC50 value concentrations. At the end of incubation, uptake and cell death mechanisms were evaluated. […] Finally, apoptosis was investigated by Western blot analyses using specific antibodies against pro-caspases 9 and 3.
To study the uptake of the complexes, SVT2 and A431 were incubated for 48 h in the presence of 1-Me,Me and 1-Oct,Me, respectively, at their IC50 concentrations. At the end of incubation, Pt determination was performed by inductively coupled plasma mass spectrometry (ICP-MS, Aurora M90; Bruker, Ettlingen/Leipzig, Germany) in the “Normal Sensitivity” mode. Calibration curves for the quantification of Pt ranged from 0.1 to 100 μg/L and were constructed daily by the analysis of the standard solutions prepared immediately before analysis. All standards used for analysis were prepared in HNO3 solution (2%, v/v). The internal standards were ^89Y and ^115In in both the calibration curve and sample analyses. The linearity was acceptable with an R^2 value greater than 0.9996. The treatment of the cells involved a wet digestion: after centrifugation, cell samples were wet digested with 1 mL of ultrapure HNO3 (67–69%, v/v). The mixture was gently boiled over a water bath (90 °C) for 3 h until a clear solution was obtained. […]

The target of data set [3] is T1, hen egg white lysozyme (HEWL) (Gallus gallus, UniProt P00698).
T1 construct: model protein hen egg white lysozyme (HEWL); purchased Merck KGaA (Darmstadt, Germany); host or cells: hen egg white (natural source, by the protein's name)
Description: X-ray structure of adducts with HEWL. The data set is classed as binding. As for the experimental part: To obtain information on the reactivity of 1-Me,Me with proteins, the X-ray structure of the adducts that the Pt compound forms with HEWL was solved.
The structures were obtained using crystals grown in 20% ethylene glycol, 0.1 M sodium acetate buffer at pH 4.0, and 0.6 M sodium nitrate (Structure A, Figure 8A) and in 2.0 M sodium formate and 0.1 M Hepes at pH 7.5 (Structure B, Figure 8B), refined at 1.25 and 1.33 Å resolutions, respectively (Table S2).
HEWL crystals were grown using the hanging drop vapour diffusion method and the following reservoirs: • (a) 20% ethylene glycol, 0.10 M sodium acetate at pH 4.0, and 0.60 M sodium nitrate • (b) 2.0 M sodium formate and 0.1 M HEPES at pH 7.5.
The crystals of the protein adduct with 1-Me,Me were obtained by the soaking procedure. The HEWL crystals were soaked in a solution consisting of 83% reservoir, 17% DMSO, and 3.3 mM 1-Me,Me.
The structures of the Pt–HEWL adducts were solved by the molecular replacement method, using the HEWL coordinates deposited in the PDB under the accession code 193L [40] as a model. Refinements were carried out with a CCP4 REFMAC5 [46], and the model building, adjustments, and inspection of the electron density maps was manually carried out using WinCoot.
The Pt binding sites were unambiguously identified by comparing 2Fo–Fc, residual Fo–Fc, and anomalous difference electron density maps. […]

For data set [4], the system named is immortalized murine fibroblasts (BALB/c-3T3). To be noted: read-out: IC50 BALB-c/3T3; 48 h incubation, MTT. Here is the method:
To evaluate their biological activity, the effects of the four complexes on cell viability were evaluated in eukaryotic cell models. For this purpose, experiments were performed on two cancer cell lines, i.e., human epidermoid carcinoma cells (A431) and murine fibroblast BALB/c-3T3 transformed with the SV40 virus (SVT2), and on two non-cancer cell lines, i.e., immortalized human keratinocytes (HaCaT) and immortalized murine fibroblasts (BALB/c-3T3). Cells were incubated with increasing concentrations of 1,Me-Me, 1,Oct-Me, 1,Me-Oct, and 1,Oct-Oct (from 0.1 to 50 μM). After 48 h of incubation, cytotoxicity was determined by MTT assay and cell survival was expressed as the percentage of viable cells in the presence of each complex compared with that of the untreated cells (Figure S19).
The immortalized human keratinocytes (HaCaT) were from Innoprot. Human The A431 epidermoid carcinoma, murine BALB/c-3T3, and SVT2 fibroblasts were from ATCC. Cells were cultured in Dulbecco’s modified Eagle’s medium (DMEM) (Sigma-Aldrich, St. Louis, MO, USA), supplemented with 10% foetal bovine serum (HyClone), 2 mM L-glutamine, and antibiotics, all from Sigma-Aldrich, under a 5% CO2-humidified atmosphere at 37 °C. To test the effects of the complexes on cell viability, cells were seeded at a density of 2.5 × 10^3 cells per well in 96-well plates. After 24 h, cells were incubated with increasing concentrations (from 0.1 to 50 μM) of the four complexes. After 48 h, cell viability was assessed by the MTT assay, as previously reported in [43]. Cell viability was expressed as the percentage of viable cells in the presence of the Pt complexes compared to the controls, represented by untreated cells and cells supplemented with identical volumes of DMSO. Each sample was tested in three independent analyses, each carried out in triplicate.

A short description of data set [5]: Octanol/water partition coefficient, shake-flask method. In kind it is physicochemical. To be noted: n-octanol/water, UV-vis. Here is the method: The partition coefficients in octanol/water (log Po/w) were measured using the shake-flask method, by calculating the equilibrium concentrations through UV spectra (Table 1).
Partition coefficients for the platinum complexes were determined in triplicate in an n-octanol/water system, with different ratios (1:1, 1:2, 2:1). Each complex was dissolved in n-octanol at the concentrations 16.7, 12.5, or 10 μM and subsequently, an appropriate volume of water was added. The mixtures were shaken mechanically for 1 h to ensure the distribution between the two solvent phases. The samples were then centrifuged (13,000 rpm, 10 min). Afterwards, the platinum concentration was determined in the octanol phases by UV–vis spectrophotometry, after collecting a calibration line for each complex. Results are expressed as the logarithm of the partition coefficient of octanol/water (log Po/w), which is the logarithm of the concentration of platinum in the n-octanol divided by its concentration in the aqueous layer.

On to “Platinum(1+), (2,9-dimethyl-1,10-phenanthroline- N1,N10)(η2-ethene)methyl[1,3-dihydro-1,3-dimethyl-4-[1-[2,3,4,6-tetrakis-O-(acetyl)-β-D-glucopyranosyl]-1H-1,2,3-triazol-4-yl]-2H-imidazol-2-ylidene], 1,1,1-trifluoromethanesulfonate [1-Me,Me]”, for which the IC50 in data set [1] was 8.4 ± 1.7 µM; in data set [2] (48 h incubation, MTT), 20 ± 2 µM; in data set [4] it was 26 ± 1 µM. Also, the “SI (selectivity index)” value in data set [2] (ratio IC50 HaCaT / IC50 A431) is 0.42. The substance further displayed a Pt uptake with SVT2 cells of 0.772 ± 0.010 Pt ng/10^6 cells. The “Pt binding sites on HEWL” value in data set [3] (Structure A: 20% ethylene glycol, 0.1 M sodium acetate pH 4.0, 0.6 M sodium nitrate) is “two Pt binding sites were observed”; in data set [3] (Structure B: 2.0 M sodium formate, 0.1 M Hepes pH 7.5), “a single Pt binding site was observed”. Further, the “Log Po/w” value in data set [5] was 0.42.

The values above are taken from publication PMC9916762, “Impact of Hydrophobic Chains in Five-Coordinate Glucoconjugate Pt(II) Anticancer Agents” (International Journal of Molecular Sciences, 2023).
